Results taken from patent US4946842A, “Novel guanidino pyridazinones as cardiac stimulants” (Smith Kline & French Laboratories Limited, priority 1985, dated 1990).

Legend:
[1] = system: ventricular strips; assay: Cardiac stimulant activity in vitro: force of contraction of electrically stimulated ventricular strips; format: cell-based; settings: Cavia porcellus, read-out: EC50 (50% increase in the force of contraction of the ventricular strips); guinea pig ventricular strips, 37° C., 1.0 Hz, cumulative concentration response
Procedure: The compounds of formula (I) and their pharmaceutically acceptable salts are tested for cardiac stimulant activity following a procedure based on that of S. C. Verma and J. H. McNeill (J.Pharm & Exp. Therapeutics, 200, 352-362 (1977)). Guinea pigs (500-700 g) of either sex are sacrificed and the hearts are quickly removed and transferred to a dissecting dish containing oxygenated bathing fluid. While in the bathing medium, the right ventricle is cut into two strips. The strips are each suspended in a 50 ml bath containing Krebs Henseleit solution at 37° C., and the bath is bubbled with 95% oxygen and 5% carbon dioxide. The ventricular strips are electrically stimulated at a frequency of 1.0 Hz, at double the threshold voltage. A resting tension of 1.0 g is applied to the strips and the tension is kept constant by readjustment during an equilibration period of 60 minutes. The bathing fluid is frequently changed during this period. When a steady base line is obtained, a compound under test is added to the bathing fluid and a cumulative concentration response curve is plotted. The compounds for use in the present invention which were tested gave a 50% increase in the force of contraction of the ventricular strips at concentrations in the bathing fluid of less than 10^-4 molar, thus showing that they have activity as positive inotropic agents.

[2] = system: left ventricular dp/dt max; assay: Cardiac stimulant activity in vivo (anaesthetised cats): left ventricular dp/dt max; parameters: species or system cat; settings: Felis catus, iv, read-out: ED50 (dose to increase left ventricular dp/dt max by 50%), i.v., pretreated with ganglion blocker and propranolol
Excerpt: Cardiac Stimulant Activity--In vivo (Anaesthetised Cats)
# Relative duration was estimated in the anaesthetised cats following the

[3] = system: PDE (Peak III); assay: Inhibition of PDE (Peak III); settings: read-out: IC50 (PDE Peak III); 1 μM cyclic AMP
Procedure: (§1) The enzyme was assayed by incubation at 37° for 4-30 min in 50 mM Tris, 5 mM MgCl2, pH 7.5 with [3-H] cyclic nucleotide (4×10^5 disintegrations min^-1) and [14-C] nucleotide 5' monophosphate (3×10^3 disintegrations min^-1). The assay was stopped by boiling, and the [3-H] […] The reaction mixture was diluted with 0.5 ml 100 mM HEPES (N-2-Hydroxyethylpiperazine-N'-2-ethanesulfonic acid), 100 mM NaCl, pH 8.5, and applied to the column. […] The recovery of product as judged by [14-C] recovery was approximately 80%. All assays were linear with time of incubation and concentration of enzyme over the range used in these experiments.

[4] = system: PDE (Peak I); assay: Substrate kinetics of PDE (Peak I); format: biochemical, cat; settings: for Relative Vmax: PDE (Peak I), eluted at 0.15 M Na acetate
[5] = system: PDE (Peak II); settings: in words
Procedure: as §1

| SMILES | EC50 [1] | ED50 [2] | further results |
| --- | --- | --- | --- |
| CC(=O)N=C(N)Nc1ccc(C2=NNC(=O)CC2C)cc1 (stereo not shown) [Example 1, 6-[4-(N^2-acetylguanidino)phenyl]-5-methyl-4,5-dihydro-3(2H)-pyridazinone] | 16 µM | 0.5 µmol/kg | IC50 [3]: 2.23 µM |
| CNC(=NS(C)(=O)=O)Nc1ccc(C2=NNC(=O)CC2C)cc1 (stereo not shown) [Example 2, 6-[4-(N^3-methyl-N^2-methylsulphonylguanidino)phenyl]-5-methyl-4,5-dihydro-3(2H)-pyridazinone] |  | 0.2 µmol/kg | IC50 [3]: 2.48 µM |
| CNC(=NS(=O)(=O)c1ccccc1)Nc1ccc(C2=NNC(=O)CC2C)cc1 (stereo not shown) [Example 3, 6-[4-(N^ 3-methyl-N^2-phenylsulphonylguanidino)phenyl]-5-methyl-4,5-dihydro-3(2H)-pyridazinone] |  | 0.1 µmol/kg | IC50 [3]: 0.23 µM |
| COCCNC(=NC#N)Nc1ccc(C2=NNC(=O)CC2C)cc1 (stereo not shown) [Example 4, 6-[4-(N^3-(2-Methoxyethyl)-N^2-cyanoguanidino)phenyl]-5-methyl-4,5-dihydro-3(2H)-pyridazinone] | 2.8 µM | 0.2 µmol/kg |  |
| CC1CC(=O)NN=C1c1ccc(NC(=NC#N)NCCO)cc1 (stereo not shown) [Example 5, 6-[4-(N^3-(2-Hydroxyethyl)-N^2-cyanoguanidino)phenyl]-5-methyl-4,5-dihydro-3(2H)-pyridazinone] | 8 µM | 0.7 µmol/kg |  |
| CC1CC(=O)NN=C1c1ccc(NC(=NC#N)NC2CC2)cc1 (stereo not shown) [Example 6] | 10 µM | 0.4 µmol/kg |  |
| C=CCNC(=NC#N)Nc1ccc(C2=NNC(=O)CC2C)cc1 (stereo not shown) [Example 7, 6-[4-(N^3 -Allyl-N^2-cyanoguanidino)phenyl]-5-methyl-4,5-dihydro-3(2H)-pyridazinone] | 10 µM | 0.3 µmol/kg |  |
| C#CCNC(=NC#N)Nc1ccc(C2=NNC(=O)CC2C)cc1 (stereo not shown) [Example 8, 6-[4-(N^3 -Propargyl-N^2-cyanoguanidino)phenyl]-5-methyl-4,5-dihydro-3(2H)-pyridazinone] | 18 µM | 0.4 µmol/kg |  |
| CC1CC(=O)NN=C1c1ccc(NC(=NC#N)NCc2ccc(O)cc2)cc1 (stereo not shown) [Example 9, 6-[4-(N^3-(4-Hydroxybenzyl)-N^2-cyanoguanidino)phenyl]-5-methyl-4,5-dihydro-3(2H)-pyridazinone] |  | 0.4 µmol/kg | IC50 [3]: 0.08 µM |
| CC1CC(=O)NN=C1c1ccc(NC(=NC#N)NCc2ccccc2)cc1 (stereo not shown) [Example 10, 6-[4-(N^3 -Benzyl-N^2-cyanoguanidino)phenyl]-5-methyl-4,5-dihydro-3(2H)-pyridazinone] | 0.8 µM | 0.1 µmol/kg |  |
| COc1ccc(CNC(=NC#N)Nc2ccc(C3=NNC(=O)CC3C)cc2)cc1 (stereo not shown) [Example 11, 6-[4-(N^3-(4-Methoxybenzyl)-N^2-cyanoguanidino)phenyl]-5-methyl-4,5-dihydro-3(2H)-pyridazinone] |  | 0.5 µmol/kg |  |
| CC1CC(=O)NN=C1c1ccc(NC(=NC#N)NCc2ccccn2)cc1 (stereo not shown) [Example 12, 6-[4-(N^3-(2-Pyridylmethyl)-N^2-cyanoguanidino)phenyl]-5-methyl-4,5-dihydro-3(2H)-pyridazinone] | 12 µM |  |  |
| CC1CC(=O)NN=C1c1ccc(NC(=NC#N)NCCc2ccccc2)cc1 (stereo not shown) [Example 13, 6-[4-(N^3 -Phenethyl-N^2-cyanoguanidino)phenyl]-5-methyl-4,5-dihydro-3(2H)-pyridazinone] | 12.5 µM |  |  |
| Nc1nc2c(ncn2[C@@H]2O[C@@H]3COP(=O)(O)O[C@H]3[C@H]2O)c(=O)[nH]1 [cyclic GMP] |  |  | Relative Vmax ([4]; 50 μg/ml calmodulin added): 7.2; Relative Vmax ([4]; without calmodulin): 1.1; affinity of PDE (Peak I) ([4]; in words): high affinity; affinity of PDE (Peak II) [5]: relatively low affinities |
